Measurements: patent publication US7919464B2, “Use of a peptide that interacts with αvβ3 integrin of endothelial cell” (Kyungpook National University Industry-Academic Cooperation …, priority 2003, dated 2011)
Ends that are not written are not given here.

B1: ΔH1H2(6): smallest deletion mutant fragment, amino acids 548-614 of SEQ ID NO: 1, SEQ ID NO: 10 (protein, listed as Homo sapiens)
chain: RALPPRERSRLLGDAKELANILKYHIGDEILVSGGIGALVRLKSLQGDKLEVSLKNNVVSVNKEPVA

Assays:
HUVECs [1] = test: HUVECs adhesion to plates coated with βig-h3, its fas-1 domains or mutants; format: cell-based, human; conditions: 10 μg/ml protein coated on plate; attached cells by absorbance at 405 nm; control BSA
Experimental: Cell adhesion assay was performed according to the method described by Kim, J.-E. et al., J. Biol. Chem., 277:4615946165, 2002. For this purpose, 10 μg/ml of each of the recombinant proteins (βig-h3 His-β-b, βig-h3 D-I, βig-h3 D-II, βig-h3 D-III and βig-h3 D-IV) prepared in Example 1 was placed into a flat-bottomed 96-well ELISA (enzyme-linked immunosorbent assay) plate (Costar, Corning Inc., NY) and then incubated overnight at 4° C., to coat the surface of the plate. As a control, 2% BSA was coated on the plate. Then, the plate was treated with PBS (phosphate-buffered saline) containing 2% BSA, and blocked at room temperature for one hour.
Meanwhile, HUVECs (human umbilical vein endothelial cells; Clonetics, San Diego, Calif.) were incubated in EGM medium (Clonetics, San Diego, Calif.) containing 2% FBS (Fetal Bovine Serum) under a condition of 37° C. and 5% CO2. The incubated cells were suspended in medium at a density of 3×10^5 cells/ml, and 0.1 ml of the cell suspension was added to each well of the plate. Next, the cells were incubated at 37° C. for 30 minutes and washed one time with PBS buffer to remove cells which had not been attached to the plate. Attached cells were added with 50 mM citrate buffer (pH 5.0) containing 3.75 mM p-nitrophenyl-N-acetyl β-D-glycosaminide and 0.25% Triton X-100, and incubated at 37° C. for one hour. Thereafter, 50 mM glycine buffer (pH 10.4) containing 5 mM EDTA was added to block the activity of the enzyme. The absorbance was measured at a 405-nm in a Bio-Rad model 550 microplate reader. Here, the higher the number of cells adhered to the plate, the higher the absorbance.
Each of the deletion mutants was generated by PCR using a cDNA template encoding the fourth fas-1 domain (SEQ ID NO: 5) (Kim, J.-E. et al., J. Biol. Chem., 275:30907-30915, 2000). Each of the PCR-amplified DNA fragments was cloned into the EcoRV/Xhol sites of the pET-29b(+) vector (Novagen; Madison, Wis.). The mutations were confirmed by sequence analysis, and the deletion mutants were expressed and purified according to a prior method (Kim, J.-E., et al., J. Cell. Biochem., 77:169-178, 2000). Thereafter, the cell adhesion activity of each of the deletion mutants was tested in the same manner as in Example 2.
Previously, the present inventors reported that an YH motif, which contains tyrosine-histidine residues highly conserved in the fragment corresponding to amino acids 548-614 of SEQ ID NO: 1, and several leucine and isoleucine residues adjacent to the tyrosine-histidine residues, binds to the αvβ5 integrin (Kim, J.-E., et al., J. Biol. Chem., 277:46159-46165, 2002). Thus, the present inventors suspected that the YH motif may also interact with the αvβ3 integrin to mediate endothelial cell adhesion. For this reason, in the present invention, the tyrosine-histidine residues conserved in the fas-1 domains, and/or the leucine and isolucine residues adjacent to the tyrosine-histidine residues, were substituted in various combinations by alanine or serine (Kim, J.-E., et al., J. Biol. Chem. 277:4615946165, 2002)(see FIG. 4b). The amino acid sequences of the prepared YH motif mutants are shown in SEQ ID NO: 17 to SEQ ID NO: 22. The mutations were confirmed by sequence analysis. Then, the substitution mutants were expressed and purified according to a known method (Kim, J.-E., et al., J. Cell. Biochem., 77:169-178, 2000). The substitution mutants were tested for their cell adhesion activity according to the same manner as in Example 2.

HUVECs [2] = test: HUVECs migration assay in transwell plate coated with βig-h3; format: cell-based, human; conditions: 500 μM or 1 mM peptide of SEQ ID NO: 26
Experimental: Firstly, to examine whether βig-h3 is involved in the migration of endothelial cells, the present inventors performed cell migration assay. The cell migration assay was performed in a transwell plate (8 μm pore size, Costar, Cambridge, Mass.). The undersurface of the membrane was coated with the recombinant βig-h3 His-β-b protein (10 μg/ml) prepared in Example 1 at 4° C., and then, blocked for 1 hour at room temperature with PBS buffer containing 2% BSA. Meanwhile, HUVECs were added with an anti-αvβ3 antibody (LM609) or an anti-αvβ5 antibody (P1F6) and preincubated at 37° C. for 30 minutes. A control was added with mouse IgG. Then, the HUVECs preincubated with the antibody were suspended in medium at a density of 3×10^5 cells/ml, and 0.1 ml of the cell suspension was added to the upper compartment of the filter. The cells were allowed to migrate at 37° C. for 6-8 hours.
Migration was terminated by removing the cells from the upper compartment of the filter with a cotton swab. The filters were fixed with 8% glutaraldehyde and stained with crystal violet. The extent of cell migration was determined by light microscope, and within each well, cell counting was done in nine randomly selected fields HPF (Microscopic high power fields, ×200).
Then, the present inventors examined whether the migration of endothelial cells is inhibited by the YH18 synthetic peptide. […]

C57/BL6 mice = test: In vivo Matrigel plug assay; conditions: subcutaneous, 7 days
Experimental: In the present invention, the angiogenesis-inhibitory effect of the YH18 synthetic peptide, which had been proven in vitro assay according to Example 8-1, was assayed in vivo. An in vivo Matrigel plug assay was performed according to the method described by Maeshima, Y. et al., J. Biol. Chem., 275:23745-23750, 2000. 5-6 week old male C57/BL6 mice purchased from Hyochang scientific company, Korea, were used.
First, Matrigel (BD Biosciences, MA) was mixed with 20 units/ml heparin, 150 ng/ml bFGF (basic fibroblast growth factor, R&D system, International, Inc), and a YH18 synthetic peptide represented by SEQ ID NO: 26. As a control to the YH18 synthetic peptide, an YH18-con. peptide was used, and a control to peptide treatment was treated with 5% DMSO (solvent). The Matrigel mixture was injected subcutaneously to the C57/BL6 mice. After 7 days, the mice were sacrificed, and the Matrigel plugs were removed and fixed in 4% paraformaldehyde. The Matrigel plugs were buried in paraffin, sectioned and stained with H&E. Their sections were examined by light microscope, the number of blood vessels from 4-6 HPF (high power fields; ×200) was counted and averaged. Each group consisted of 3 or 4 Matrigel plugs.

HUVECs [3] = system: HUVECs
Experimental: First, 100 μl of Matrigel (Chemicon, International Inc, Temecula, Calif.) was added to each well of a 96-well plate and allowed to polymerize. HUVECs were suspended in medium at a density of 3×10^5 cells/ml, and 0.1 ml of the cell suspension was added to each well of the well plate coated with Matrigel. At this time, 500 μM or 1 mM of the YH18 synthetic peptide represented by SEQ ID NO: 26 was added together. A control to peptide treatment was treated with 5% DMSO (solvent), and a control to the YH18 synthetic peptide was treated with the YH18-con. peptide represented by SEQ ID NO: 27. Thereafter, the cells were incubated at 37° C. for 16-18 hours. The cells were photographed, and endothelial tubes were counted and averaged.

Molecule | endothelial cell (HUVECs) adhesion activity (HUVECs [1]) | further results
D-IV-AAR: D-IV mutant, tyrosine-histidine to alanine-alanine and isoleucine/leucine on one side to serine (GDAKELANILKAASGDESSVSGGIGALVR; D-IV-AAR) | somewhat lower than those of D-IV-LAA and D-IV-AAR | 
D-IV-LYHR: D-IV mutant, all isoleucine and leucine residues on both sides of tyrosine-histidine substituted with serine (GDAKESANSSKYHSGDESSVSGGIGALVR; D-IV-LYHR) | reduced to half that of the fas-1 domain | 
D-IV-LAA: D-IV mutant, tyrosine-histidine to alanine-alanine and isoleucine/leucine on one side to serine (GDAKESANSSKAAIGDEILVSGGIGALVR; D-IV-LAA) | somewhat lower than those of D-IV-LAA and D-IV-AAR | 
D-IV-L: D-IV mutant, leucine and isoleucine residues adjacent to one side of tyrosine-histidine substituted with serine (GDAKESANSSKYHIGDEILVSGGIGALVR; D-IV-L) | equal to those of the fas-1 domain (D-IV) and its fragment (H1H2(6)) | 
KELANILKYHIGDEILVS [YH18 synthetic peptide] |  | inhibition of HUVECs migration toward βig-h3 by YH18 synthetic peptide (HUVECs [2]): inhibited the migration of endothelial cells toward βig-h3; number of blood vessels in Matrigel plug (C57/BL6 mice; 500 μM peptide in Matrigel with bFGF and heparin): significant reduction in the number of blood vessels; inhibition of angiogenesis in Matrigel plug (C57/BL6 mice; 1 mM peptide in Matrigel with bFGF and heparin): complete inhibition of angiogenesis; IC50 (HUVECs [3]): 500 µM; inhibition of HUVECs tube formation (HUVECs [3]; 500 μM or 1 mM peptide, dose-dependent): selectively inhibited
D-IV-AA: D-IV mutant, tyrosine-histidine residues substituted with alanine-alanine (GDAKELANILKAAIGDEILVSGGIGALVR) | equal to those of the fas-1 domain (D-IV) and its fragment (H1H2(6)) | 
D-IV-R: D-IV mutant, leucine and isoleucine residues adjacent to one side of tyrosine-histidine substituted with serine (GDAKELANILKYHSGDESSVSGGIGALVR; D-IV-R) | equal to those of the fas-1 domain (D-IV) and its fragment (H1H2(6)) | 
B1 | still retains endothelial cell adhesion activity | 
